# Assay results as given in patent US11717503B2 (priority 2020, dated 2023).
# “And” between values parts separate entries of the source, which are not always exact repeats. Equal values may be shown once.
# What was measured:
# Design in all cases: species or system C57BL/6 mice
# [1] = tested on: H7N9 avian influenza virus; conditions: mouse, in vivo, po
# [2] = tested on: H7N9 avian influenza virus; conditions: mouse, in vivo
# IFN-γ = conditions: mouse, in vivo
# [3] = tested on: H7N9 avian influenza virus; conditions: mouse, in vivo; remark: listed apart in the source
# IL-1β = conditions: mouse, in vivo, po
SMILES,Mortality [1] [%],Number of survivals 15 days post infection [1],Survival rate [1] [%],Effect on weight loss caused by H7N9 infection (in words) [2],IFN-γ level vs control group (in words) (IFN-γ),IFN-γ content in lung homogenate (IFN-γ; po),Effect on proliferation of influenza virus in the lungs (in words) [3],Virus content in the lungs (virus titer) ([3]; po) [log10EID50/ml],IL-1β content in lung homogenate (IL-1β)
"CC[C@H](C)[C@H](N)C(=O)O [Isoleucine, isoleucine]",100,0,0,did not improve the weight loss,–,–,–,–,–
"NCCCC[C@H](N)C(=O)O [Lysine, lysine]",90,1,10,alleviated the weight loss,–,–,–,–,–
"CC(C)[C@H](N)C(=O)O [Valine, valine]",60,4,40,alleviated the weight loss,significantly higher,121.927 ± 10.241 pg/mL and 108.583 ± 10.700 pg/mL,significantly reduce the proliferation,4.168 ± 0.614,691.546 ± 125.531 pg/mL and 512.836 ± 104.971 pg/mL
